Among the data in US11952344B2, “Heterocyclic compound and use thereof” (TAKEDA PHARMACEUTICAL COMPANY LIMITED, priority 2019, dated 2024) are inhibition values, retold here.

For this assay, the target named is T1, Human NMDA (NR1/NR2B) Receptor (Homo sapiens, UniProt Q13224).
T1 construct: host or cells: HEK293
T1 sequence (Q13224 27-1484, other chains not shown): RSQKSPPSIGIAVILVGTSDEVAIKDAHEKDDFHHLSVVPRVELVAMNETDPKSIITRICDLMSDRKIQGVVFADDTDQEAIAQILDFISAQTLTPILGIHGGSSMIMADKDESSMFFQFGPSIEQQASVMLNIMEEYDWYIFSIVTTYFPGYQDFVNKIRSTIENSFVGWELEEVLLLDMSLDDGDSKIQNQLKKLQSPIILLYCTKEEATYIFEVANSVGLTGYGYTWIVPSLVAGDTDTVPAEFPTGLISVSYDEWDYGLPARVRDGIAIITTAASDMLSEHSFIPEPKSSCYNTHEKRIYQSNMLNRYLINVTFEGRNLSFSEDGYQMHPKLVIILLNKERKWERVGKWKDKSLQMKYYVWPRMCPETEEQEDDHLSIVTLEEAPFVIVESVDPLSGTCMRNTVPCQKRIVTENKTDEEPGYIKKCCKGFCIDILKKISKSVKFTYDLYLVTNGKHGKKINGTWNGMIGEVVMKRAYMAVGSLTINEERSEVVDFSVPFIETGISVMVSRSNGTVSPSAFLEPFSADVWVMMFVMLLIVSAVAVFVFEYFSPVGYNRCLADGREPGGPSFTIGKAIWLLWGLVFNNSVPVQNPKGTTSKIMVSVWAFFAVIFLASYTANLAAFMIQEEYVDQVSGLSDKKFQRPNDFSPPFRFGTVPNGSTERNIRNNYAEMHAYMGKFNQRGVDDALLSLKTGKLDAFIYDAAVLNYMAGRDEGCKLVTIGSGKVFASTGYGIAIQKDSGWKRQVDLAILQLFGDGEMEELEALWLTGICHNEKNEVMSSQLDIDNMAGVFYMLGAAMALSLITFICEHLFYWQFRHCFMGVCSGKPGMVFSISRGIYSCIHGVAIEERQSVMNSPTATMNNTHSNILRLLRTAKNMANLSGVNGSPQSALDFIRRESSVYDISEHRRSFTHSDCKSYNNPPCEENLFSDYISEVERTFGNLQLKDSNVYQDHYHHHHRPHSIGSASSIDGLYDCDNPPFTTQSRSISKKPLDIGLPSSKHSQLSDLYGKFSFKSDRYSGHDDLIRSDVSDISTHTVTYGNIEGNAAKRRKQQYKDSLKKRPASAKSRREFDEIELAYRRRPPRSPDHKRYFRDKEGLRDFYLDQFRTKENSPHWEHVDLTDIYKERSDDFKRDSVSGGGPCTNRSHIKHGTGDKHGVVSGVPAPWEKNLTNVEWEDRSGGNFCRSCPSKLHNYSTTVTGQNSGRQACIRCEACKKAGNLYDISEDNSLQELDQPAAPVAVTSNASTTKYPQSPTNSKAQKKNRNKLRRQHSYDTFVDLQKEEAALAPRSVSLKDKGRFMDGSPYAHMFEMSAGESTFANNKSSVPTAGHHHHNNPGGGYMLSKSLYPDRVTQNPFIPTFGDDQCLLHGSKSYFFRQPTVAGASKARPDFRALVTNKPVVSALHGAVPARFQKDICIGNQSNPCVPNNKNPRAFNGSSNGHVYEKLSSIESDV
The experiment in a line: NR2B Ca2+ influx assay. In kind it is cell-based. Particulars: 10 μM compound; HEK293 cells expressing GRIN1 and GRIN2B; glutamic acid/glycine-induced Ca2+ influx, Fluo-4 fluorescence; read-out: inhibitory rate (10 μM compound concentration). From the text:
Experimental Example 1 NR2B Ca^2+ Influx Assay
To confirm the “antagonistic action on an NMDA receptor containing the NR2B subunit” of the compound of the present invention, human embryonic kidney cell expressing the “NMDA receptor composed of four subunits including 2 sets of heterodimers of NR1 and NR2B”, specifically HEK293 cell expressing human glutamate ionotropic receptor NMDA type subunit 1 (GRIN1) and human glutamate ionotropic receptor NMDA type subunit 2B (GRIN2B), was used and the activation suppressive effect (inhibitory activity) on the receptors by the compound of the present invention was measured.
HEK293 cells that express GRIN1 and GRIN2B were purchased from ChanTest (Human NMDA (NR1/NR2B) Receptor-expressing, stable replicating cell line (HEK293) catalog No. CT6121).
As an index of the NMDA receptor activation, intracellular calcium ion (Ca^2+) influx caused by the binding of glycine and glutamic acid with NR1 and NR2B, respectively, was used.
HEK293 cells that express GRIN1 and GRIN2B were cultured in a cell culture flask in DMEM/F-12 (COSMO BIO, 10-092-CM) medium added with 10% FBS (fetal bovine serum, AusGene), 100 units/mL penicillin, 100 μg/mL streptomycin, 500 μg/mL neomycin, 100 μg/mL Zeocin (registered trade mark, Invitrogen), 5 μg/mL Blasticidin, in an incubator (37° C., 5% CO2).
The cells were detached from flask with trypsin the day before the assay, suspended in a seeding medium (DMEM (Invitrogen, 31053) added with 10% FBS, 100 units/mL penicillin, 100 μg/mL streptomycin) at 8×10^5 cells/mL, seeded by 25 μL/well in a 384-well plate (Falcon, 356663) at 20000 cells/well, and cultured overnight in an incubator. On the day of the assay, tetracycline (Wako Pure Chemical Industries, Ltd., 209-16561) was diluted with the seeding medium at 2 μg/mL, added at 25 μL/well to the plate seeded with the cells, and cultured for 2 hr in an incubator. Thereafter, the medium was removed, and the cells were washed with 50 μL/well assay buffer (137 mM NaCl, 4 mM KCl, 1.8 mM CaCl2, 10 mM HEPES (pH 7.2), 10 mM Glucose, 0.1% BSA). Then, a loading buffer (assay buffer added with 2.5 μM Fluo-4AM, 2 mM Amaranth, 1 mM Tartrazine) was added at 25 μL/well, and incubation was performed in the incubator for 30 min, and at room temperature for 15 min. A solution (25 μL/well) of the Example compound diluted with the above-mentioned assay buffer at 30 μM (final concentration 10 μM) was added, and the cells were stood for 15 min at room temperature. Using FDSS7000EX/μCELL (Hamamatsu Photonics K.K.), 25 μL/well of an assay buffer containing 30 μM glutamic acid, 30 μM glycine was added, and the fluorescence signal at wavelength of Excitation 480 nm, Emission 540 nm was measured every 3 seconds for 5 min. The inhibitory activity was calculated as a relative activity value (inhibitory rate) that inhibits 100% of the cumulative value of the fluorescence value of a well added with an assay buffer free of glutamic acid, glycine, relative to the cumulative value of the fluorescence value of each well.
In the case of `COc1ccncc1CNC(=O)c1cnc(OC(F)(F)F)c(F)c1` [Example 34, 5-fluoro-N-[(4-methoxypyridin-3-yl)methyl]-6-(trifluoromethoxy)pyridine-3-carboxamide], the inhibition at 10 µM turned out to be 97%. The result for `Cc1ccncc1CNC(=O)c1cnc(OC(F)(F)F)c(F)c1` [Example 35, 5-fluoro-N-[(4-methylpyridin-3-yl)methyl]-6-(trifluoromethoxy)-pyridine-3-carboxamide] reads 96%. The same measure for `O=C(NCc1cncnc1C1CC(F)(F)C1)c1cnc(OC(F)F)c(F)c1` [Example 36, N-{[4-(3,3-difluorocyclobutyl)-pyrimidin-5-yl]methyl}-6-(difluoromethoxy)-5-fluoropyridine-3-carboxamide]: 92%. For the compound `O=C(NCc1cncnc1C1CC1(F)F)c1cnc(OC(F)F)c(F)c1` (stereo not drawn) [Example 37, N-{[4-(2,2-difluorocyclopropyl)-pyrimidin-5-yl]methyl}-6-(difluoromethoxy)-5-fluoropyridine-3-carboxamide], the inhibition at 10 µM was found to be 84%. Consider `CCc1ccncc1CNC(=O)c1cnc(OC(F)F)c(F)c1` [Example 38, 6-(difluoromethoxy)-N-[(4-ethylpyridin-3-yl)methyl]-5-fluoropyridine-3-carboxamide], for which the inhibition at 10 µM amounted to 94%. The same measure for `O=C(NCc1cncc(F)c1OC1CC1)c1cnc(OC(F)F)c(F)c1` [Example 39, N-{[4-(cyclopropyloxy)-5-fluoropyridin-3-yl]methyl}-6-(difluoromethoxy)-5-fluoropyridine-3-carboxamide]: 97%; for `Cc1c(F)cncc1CNC(=O)c1cnc(OC(F)F)c(F)c1` [Example 40, 6-(difluoromethoxy)-5-fluoro-N-[(5-fluoro-4-methylpyridin-3-yl)methyl]pyridine-3-carboxamide]: 96%; for `CCc1c(F)cncc1CNC(=O)c1cnc(OC(F)F)c(F)c1` [Example 41, 6-(difluoromethoxy)-N-[(4-ethyl-5-fluoropyridin-3-yl)methyl]-5-fluoropyridine-3-carboxamide]: 94%. The result for `CC(F)(F)c1ccncc1CNC(=O)c1cnc(OC(F)F)c(F)c1` [Example 43, N-{[4-(1,1-difluoroethyl)pyridin-3-yl]methyl}-6-(difluoromethoxy)-5-fluoropyridine-3-carboxamide] reads 90%; that for `COc1ncc(C(=O)NCc2cnccc2C)cc1F` [Example 44, 5-fluoro-6-methoxy-N-[(4-methylpyridin-3-yl)methyl]pyridine-3-carboxamide], 79%; that for `CCOc1ncc(C(=O)NCc2cnccc2C)cc1F` [Example 45, 6-ethoxy-5-fluoro-N-[(4-methylpyridin-3-yl)methyl]pyridine-3-carboxamide], 91%. In the case of `Cc1ccncc1CNC(=O)c1cnc(C2CC2)c(F)c1` [Example 46, 6-cyclopropyl-5-fluoro-N-[(4-methylpyridin-3-yl)methyl]pyridine-3-carboxamide], the inhibition at 10 µM was 95%. The same measure for `Cc1c(Cl)cncc1CNC(=O)c1cnc(OC(F)F)c(F)c1` [Example 47, N-[(5-chloro-4-methylpyridin-3-yl)methyl]-6-(difluoromethoxy)-5-fluoropyridine-3-carboxamide]: 97%; for `Cc1ccncc1CNC(=O)c1ccc(OC(F)F)c(F)c1` [Example 48, 4-(difluoromethoxy)-3-fluoro-N-[(4-methylpyridin-3-yl)methyl]benzamide]: 88%.

Turning to `Cc1ccncc1CNC(=O)c1ccc(OC(F)(F)F)c(F)c1` [Example 49, 3-fluoro-N-[(4-methylpyridin-3-yl)methyl]-4-(trifluoromethoxy)-benzamide], the inhibition at 10 µM came to 94%. The result for `Cc1ccncc1CNC(=O)c1ccc(OC(F)F)cc1` [Example 50, 4-(difluoromethoxy)-N-[(4-methylpyridin-3-yl)methyl]benzamide] reads 90%; that for `Cc1ccncc1CNC(=O)c1ccc(OC(F)F)nc1` [Example 51, 6-(difluoromethoxy)-N-[(4-methylpyridin-3-yl)methyl]pyridine-3-carboxamide], 87%. The same measure for `Cc1ccncc1CNC(=O)c1cnc(C(F)(F)F)c(Cl)c1` [Example 52, 5-chloro-N-[(4-methylpyridin-3-yl)methyl]-6-(trifluoromethyl)pyridine-3-carboxamide]: 83%; for `Cc1ccncc1CNC(=O)c1ccc(C(F)(F)F)c(F)c1` [Example 53, 3-fluoro-N-[(4-methylpyridin-3-yl)methyl]-4-(trifluoromethyl)-benzamide]: 91%. The result for `Cc1ccncc1CNC(=O)c1ccc(C(F)(F)F)c(Cl)c1` [Example 54, 3-chloro-N-[(4-methylpyridin-3-yl)methyl]-4-(trifluoromethyl)-benzamide] reads 94%; that for `Cc1ccncc1CNC(=O)c1cc(F)c(OC(F)F)c(F)c1` [Example 55, 4-(difluoromethoxy)-3,5-difluoro-N-[(4-methylpyridin-3-yl)methyl]benzamide], 91%. As for `Cc1ccncc1CNC(=O)c1csc(C2CC2)c1` [Example 56, 5-cyclopropyl-N-[(4-methylpyridin-3-yl)methyl]thiophene-3-carboxamide], the inhibition at 10 µM came out at 93%. `Cc1ccncc1CNC(=O)c1cc(F)c(C(F)F)c(F)c1` [Example 57, 4-(difluoromethyl)-3,5-difluoro-N-[(4-methylpyridin-3-yl)methyl]benzamide]: the inhibition at 10 µM amounted to 78%. The result for `Cc1ccncc1CNC(=O)c1ccc(C(F)F)c(F)c1` [Example 58, 4-(difluoromethyl)-3-fluoro-N-[(4-methylpyridin-3-yl)methyl]benzamide] reads 85%; that for `Cc1ccncc1CNC(=O)c1ccc(C(F)F)c(Cl)c1` [Example 59, 3-chloro-4-(difluoromethyl)-N-[(4-methylpyridin-3-yl)methyl]benzamide], 93%. The result for `COc1ccc(C(=O)NCc2cnccc2C)cc1F` [Example 60, 3-fluoro-4-methoxy-N-[(4-methylpyridin-3-yl)methyl]benzamide] reads 88%. The result for `CCOc1c(F)cncc1CNC(=O)c1cnc(OC(F)F)c(F)c1` [Example 61, 6-(difluoromethoxy)-N-[(4-ethoxy-5-fluoropyridin-3-yl)methyl]-5-fluoropyridine-3-carboxamide] reads 95%. With `COc1ncncc1CNC(=O)c1cc(F)c(OC)c(F)c1` [Example 62, 3,5-difluoro-4-methoxy-N-[(4-methoxypyrimidin-5-yl)methyl]benzamide], the inhibition at 10 µM was 87%. The result for `Cc1ccncc1CNC(=O)c1ccc(C(F)(F)F)s1` [Example 64, N-[(4-methylpyridin-3-yl)methyl]-5-(trifluoromethyl)thiophene-2-carboxamide] reads 85%; that for `CCOc1ncc(C(=O)NCc2cnccc2C)cc1Cl` [Example 65, 5-chloro-6-ethoxy-N-[(4-methylpyridin-3-yl)methyl]pyridine-3-carboxamide], 93%; that for `COc1ncc(C(=O)NCc2cnccc2C)cc1Cl` [Example 66, 5-chloro-6-methoxy-N-[(4-methylpyridin-3-yl)methyl]pyridine-3-carboxamide], 84%. With `COc1c(F)cc(C(=O)NCc2cncc(F)c2C)cc1F` [Example 67, 3,5-difluoro-N-[(5-fluoro-4-methylpyridin-3-yl)methyl]-4-methoxybenzamide], the inhibition at 10 µM turned out to be 92%. The result for `Cc1c(F)cncc1CNC(=O)c1cc(F)c(OC(F)F)c(F)c1` [Example 68, 4-(difluoromethoxy)-3,5-difluoro-N-[(5-fluoro-4-methylpyridin-3-yl)methyl]benzamide] reads 93%.
